In patent US10959984B2, “Methods for treating cancer with RORγ inhibitors” (THE REGENTS OF THE UNIVERSITY OF CALIFORNIA, priority 2015, dated 2021):

Experiments:
AR-positive PCa cells = assay: Prostate cancer cell growth and survival (cell viability / cell growth); type: cell-based, human
Method: (§1) For cell viability, cells were seeded in 96-well plates at 1500-2500 cells per well (optimum density for growth) in a total volume of 100 μl media. Serially diluted compounds in […] of media were added to the cells 12 hours later. After 4 days of incubation, Cell-Titer GLO reagents (Promega) were added and luminescence was measured on GLOMAX microplate luminometer (Promega), according to the manufacturer's instructions. All experimental points were set up as sextuplicate as biological replication and the entire experiments were repeated three times. The data are presented as percentage of viable cells with vehicle treated cells set as 100. The estimated in vitro IC50 values were calculated using GraphPad Prism 6 software.
(§2) For apoptosis, Terminal deoxynucleotidyl transferase-mediated dUTP nick end labeling (TUNEL) was performed by using in situ cell death detection kit (Roche) as previously described^56. The results are expressed as a percentage of apoptotic cell number/total cell number. Caspase-3/7 activity was measured using a luminescent caspase-Glo 3/7 assay kit (Promega Corporation, Madison, USA) following the manufacturer's instructions. For cell growth, cells were seeded in 6-well plates at 2×10^5 per well and treated as indicated. Total viable cell numbers were counted using a Coulter cell counter. For colony formation, 800 cells were seeded in a well of 6-well plates and cultured for 14 days with the medium changed every 3 days. When the cell clone grew visible, the medium was removed and the cells were fixed with […] formalin for 10 minutes. Then the plates were washed with PBS for two times and the cell colonies were stained with 0.2% crystal violet (in 10% formalin) for 15 minutes. The numbers of cell colonies were counted after washed 5 times by PBS. The above assays were performed in triplicates and the entire experiments were repeated three times.

C4-2B and 22Rv1 cells = assay: Colony formation, 14 d; type: cell-based, human
Method: as §2

AR and AR-V7 = assay: AR and AR variant expression (immunoblotting, qRT-PCR); type: cell-based, human
Method: Total RNA was isolated from cells in 6-well or 10-cm plates or from xenograft tumors, and the cDNA was prepared, amplified and measured in the presence of SYBR as previously^49. Briefly, the fluorescent values were collected and a melting curve analysis was performed. Fold difference was calculated as described previously^49. The experiments were performed at least three times with data presented as mean values±s.d. Cell lysates were analyzed by immunoblotting with antibodies specifically recognizing RORγ, AR, AR-V7 and the indicated proteins. The PCR primers and all the antibodies used in this study are described in the Tables 3 and 4.

[1] = system: H3K4me3 and H3K27ac at the RORE site and AR promoter; assay: ChIP-qPCR at the AR-RORE site and AR promoter; type: cell-based, human; conditions: C4-2B cells, 5 μM, 24 h
Method: ChIP-qPCR analysis was performed as described previously^49. The antibodies used for ChIP assay are AR (Santa Cruz; sc-815); RNA Pol-II (Santa cruz; sc-899); H3K4me2 (Abcam ab32356); H3K4me3 (Abcam; ab8580); H3K27ac (Abcam; ab4729); H3 (Active Motif; #39163); p300 (Santa Cruz; sc-585); SRC-1 (Santa Cruz; sc-8995); SRC-3/ACTR^64, and IgG (Santa Cruz; sc-2027). PCR primers used in the ChIP assays were listed in the Supplementary table 2. ChiPs were performed with each experimental point in triplicate, and each experiment was repeated three times.

CRPC-VCaP xenografts = assay: Castration-resistant VCaP (CRPC-VCaP) xenograft tumor growth; type: in vivo; conditions: castrated mice, SR2211 alone, 5 mg/kg i.p.
Method: Four-week-old male SCID C.B17 mice (for C4-2B and VCaP) or BALB/c nu/nu athymic mice (for 22Rv11 and PC-3) were purchased from Harlan Inc. For establishing tumors, 2×10^6 cells were suspended in total of 100 μL PBS/Matrigel (1:1) and implanted subcutaneously into the dorsal flank on both sides of the mice. Animal group size of six or more was estimated to have a high statistic power, based on power calculation (http://www.biomath.info/power/) and previous studies involving the same xenograft models^34,68. When the tumor volume was approximately 80 mm^3, the mice were randomized and then treated intraperitoneally (i.p.) with 100 μl of either vehicle or RORγ antagonists SR2211, XY011/8k (in a formulation of 15% Cremophor EL, Calbiochem, 82.5% PBS, and 2.5% DMSO) for five times per week. Tumor growth was monitored by calipers with volume calculated using the equation: (π/6 (length×width2)). Body weight during the course of the study was also monitored. At the end of the studies mice were killed and tumors were dissected and weighed. Additionally, prostate, seminal vesicle, testis, kidney, heart, lung, liver, epididymal fat pad and spleen were harvested and weighed. To assess the effect of combining RORγ antagonists and ENZ on the growth of castrated-resistant VCaP xenografts (CRPC-VCaP), first, SCID C.B17 mice were injected with VCaP cells as above to establish the tumors. […]

[2] = system: ER-positive cells, such as MCF-7 and T47D; assay: CellTiter-GLO viability, ER-positive breast cancer cells; type: cell-based; conditions: Homo sapiens, 96 h; ER-positive cells MCF-7 and T47D, treated for 4 days
Method: as §1
Using a CellTiter-GLO assay, the viability of cells of different cancer types was measured after treatment with different concentrations of RORγ small molecule inhibitors for 4 days.

Question: For `OC(c1ccc(-c2ccc(CN3CCN(Cc4ccncc4)CC3)cc2)c(F)c1)(C(F)(F)F)C(F)(F)F` [SR2211, 2-Fluoro-4′-[[4-(4-pyridinylmethyl)-1-piperazinyl]methyl]-a,a-bis (trifluoromethyl)-[1,1′-biphenyl]-4-methanol], which “growth inhibition in other AR-positive PCa cell models” value (AR-positive PCa cells; 22Rv1, VCaP, LNCaP, LAPC4 and PC346C) is on record?
Answer: The value was “strong growth inhibition”.

Question: What about the “inhibition of AR-positive PCa cell growth and survival” value (AR-positive PCa cells; different cell line models) of the same compound?
Answer: Its value is “potent inhibition of AR-positive PCa cell growth and survival”.

Question: And the colony formation (C4-2B and 22Rv1 cells)?
Answer: The colony formation was “poor colony formation”.

Question: And the “expression of AR and AR-V7” value (AR and AR-V7; C4-2B and VCaP cells, 72 h)?
Answer: Its value is “potently inhibited the expression of AR and AR-V7 in a dose-dependent manner”.

Question: What about the AR expression (AR and AR-V7; C4-2B cells, 5 μM, 24 hours) of the same compound?
Answer: The AR expression was “significant but incomplete suppression of AR expression”.

Question: And the “AR (full-length and spliced variants such as ARV7) mRNA and protein expression” value (AR and AR-V7; qRT-PCR and Western blotting, PCa cells)?
Answer: Its value is “strongly inhibited the expression of AR”.

Question: And the “gene activating marks H3K4me3 and H3K27ac at the RORE site and AR promoter” value [1]?
Answer: The value was “strongly reduced”.

Question: And the CRPC tumor growth (CRPC-VCaP xenografts)?
Answer: The CRPC tumor growth was “very potent in inhibition of the CRPC tumor growth”.

Question: And the IC50 [2]?
Answer: The IC50 was over 10 µM.
